# Measurements: patent publication US5162328A, “N-[3-[2-(1H-imidazol-1-yl)ethoxy]phenyl]-4-(2-thienyl)-2-pyrimidinamine and pharmacologically acceptable salts” (American Cyanamid Company, priority 1991, dated 1992)
# Where two headings read alike, the source gives them in different places.
# Experiment: Pharmacokinetics in dogs (plasma concentration by HPLC)
# Type: in vivo, dog (beagle)
# Settings: dog, plasma, po, 2 mg/kg/day, 2 mg/kg/day PO; for AUC(0-inf): read-out: AUCO- (to infinite time)
# Protocol: Since dogs are used in toxicology studies of antiasthma compounds, this species is chosen for pharmacokinetic evaluations. Use of the dog permits the pharmacokinetic comparison of 2 or more compounds in the same test animal, an evaluation which could not be conveniently performed in a smaller species. For each test compound, normal dogs are given a dose of 2.0 mg/kg/day for 5 consecutive days. There is a washout period of 1 month between the study of each of the test compounds in the same four dogs. Each test compound is administered as a solution of 5 mg/ml in either 0.05 or 0.1N HCl which is dispensed into a gelatin capsule immediately prior to dosage.
# Heparinized blood samples are obtained from each animal on the first, third and fifth day of dosage at 0.5, 1.0, 2.0, 4.0, 7.0, 12.0 and 24.0 hours after the dose. The samples are centrifuged immediately to obtain plasma which is frozen until analyzed.
# Analysis of plasma is performed using High Performance Liquid Chromatography (HPLC). The analytical procedure is essentially identical for each compound. The internal standard used for N-[3-[2-(1H-imidazol-1-yl)ethoxy]phenyl]-4-(2-thienyl)2-pyrimidinamine is 2-chloro-11-(4-methyl-1-piperazinyl)dibenz[b,f][1,4]oxazepine succinate, while for 2-methyl-N^4 -[4-(4-pyridinyl)-2-pyrimidinyl]-1,4-benzenediamine dihydrochloride and N-[4-[2-(diethylamino)ethoxy]phenyl]-4-(4-pyridinyl)-2-pyrimidnamine dihydrochloride the internal standard is 7-ethoxy-coumarin. In a typical procedure, a 0.4 ml volume of acetonitrile containing internal standard is added a 0.2 ml volume of serum. The sample is mixed by vortexing and centrifuged. The clear protein free supernatent fluid is decanted into a clean tube and evaporated to dryness. The dry residue is dissolved in 0.2 ml of HPLC mobile phase and 50 ul of this solution injected. Peaks corresponding to the test compound being measured and to the internal standard compound are quantitated by their absorption of ultraviolet light at 280 nm. Each set of analytical samples is accompanied by the analysis of a group of standard dog plasma samples prepared to contain amounts of the compound being measured which encompasses the concentration range of the samples.
# Four normal beagle dogs weighing between 9.2 and 10.2 Kg are used in the study.
smiles,measurement,setting,value
"Cc1cc(Nc2nccc(-c3ccncc3)n2)ccc1N.Cl.Cl [Compound 2, 2-methyl-N^4-[4-(4-pyridinyl)-2-pyrimidinyl]-1,4-benzenediamine dihydrochloride, reference compound]",concentration at 0.5 h,"Dog 1, day 1, 0.5 h",512 ng/mL
same,concentration at 1 h,"Dog 1, day 1, 1 h",233 ng/mL
same,concentration at 2 h,"Dog 1, day 1, 2 h",55 ng/mL
same,concentration at 4 h,"Dog 1, day 1, 4 h",< 30 ng/mL
same,AUC(0-t),"Dog 1, day 1",458 ng·h/mL
same,Cmax,"Dog 1, day 1",512 ng/mL
same,Tmax,"Dog 1, day 1",30 min
same,half-life,"Dog 1, day 1",28.2 min
same,AUC(0-inf),"Dog 1, day 1",520 ng·h/mL
same,concentration at 0.5 h,"Dog 1, day 3, 0.5 h",375 ng/mL
same,concentration at 1 h,"Dog 1, day 3, 1 h",295 ng/mL
same,concentration at 2 h,"Dog 1, day 3, 2 h",122 ng/mL
same,concentration at 4 h,"Dog 1, day 3, 4 h",< 30 ng/mL
same,AUC(0-t),"Dog 1, day 3",470 ng·h/mL
same,Cmax,"Dog 1, day 3",375 ng/mL
same,Tmax,"Dog 1, day 3",30 min
same,half-life,"Dog 1, day 3",54 min
same,AUC(0-inf),"Dog 1, day 3",602 ng·h/mL
same,concentration at 0.5 h,"Dog 1, day 5, 0.5 h",120 ng/mL
same,concentration at 1 h,"Dog 1, day 5, 1 h",277 ng/mL
same,concentration at 2 h,"Dog 1, day 5, 2 h",50 ng/mL
same,concentration at 4 h,"Dog 1, day 5, 4 h",< 30 ng/mL
same,AUC(0-t),"Dog 1, day 5",293 ng·h/mL
same,Cmax,"Dog 1, day 5",277 ng/mL
same,Tmax,"Dog 1, day 5",60 min
same,AUC(0-inf),"Dog 1, day 5",349 ng·h/mL
same,concentration at 0.5 h,"Dog 2, day 1, 0.5 h",438 ng/mL
same,concentration at 1 h,"Dog 2, day 1, 1 h",210 ng/mL
same,concentration at 2 h,"Dog 2, day 1, 2 h",58 ng/mL
same,concentration at 4 h,"Dog 2, day 1, 4 h",< 30 ng/mL
same,AUC(0-t),"Dog 2, day 1",406 ng·h/mL
same,Cmax,"Dog 2, day 1",438 ng/mL
same,Tmax,"Dog 2, day 1",30 min
same,half-life,"Dog 2, day 1",31.2 min
same,AUC(0-inf),"Dog 2, day 1",471 ng·h/mL
same,concentration at 0.5 h,"Dog 2, day 3, 0.5 h",260 ng/mL
same,concentration at 1 h,"Dog 2, day 3, 1 h",78 ng/mL
same,concentration at 2 h,"Dog 2, day 3, 2 h",< 30 ng/mL
same,concentration at 4 h,"Dog 2, day 3, 4 h",< 30 ng/mL
same,AUC(0-t),"Dog 2, day 3",293 ng·h/mL
same,Cmax,"Dog 2, day 3",260 ng/mL
same,Tmax,"Dog 2, day 3",30 min
same,AUC(0-inf),"Dog 2, day 3",380 ng·h/mL
same,concentration at 0.5 h,"Dog 2, day 5, 0.5 h",350 ng/mL
same,concentration at 1 h,"Dog 2, day 5, 1 h",58 ng/mL
same,concentration at 2 h,"Dog 2, day 5, 2 h",< 30 ng/mL
same,concentration at 4 h,"Dog 2, day 5, 4 h",< 30 ng/mL
same,AUC(0-t),"Dog 2, day 5",190 ng·h/mL
same,Cmax,"Dog 2, day 5",350 ng/mL
same,Tmax,"Dog 2, day 5",30 min
same,AUC(0-inf),"Dog 2, day 5",255 ng·h/mL
same,concentration at 0.5 h,"Dog 3, day 1, 0.5 h",605 ng/mL
same,concentration at 1 h,"Dog 3, day 1, 1 h",234 ng/mL
same,concentration at 2 h,"Dog 3, day 1, 2 h",184 ng/mL
same,concentration at 4 h,"Dog 3, day 1, 4 h",< 30 ng/mL
same,AUC(0-t),"Dog 3, day 1",570 ng·h/mL
same,Cmax,"Dog 3, day 1",605 ng/mL
same,Tmax,"Dog 3, day 1",30 min
same,half-life,"Dog 3, day 1",58.2 min
same,AUC(0-inf),"Dog 3, day 1",776 ng·h/mL
same,concentration at 0.5 h,"Dog 3, day 3, 0.5 h",387 ng/mL
same,concentration at 1 h,"Dog 3, day 3, 1 h",284 ng/mL
same,concentration at 2 h,"Dog 3, day 3, 2 h",141 ng/mL
same,concentration at 4 h,"Dog 3, day 3, 4 h",< 30 ng/mL
